This assay concerns C. elegans.
The mark [1] stands for this setting: Table S2, C. elegans SS assay, 110 μM, 0 h, averages of 4 data points.
The mark [2] stands for this setting: Table S2, C. elegans SS assay, 110 μM, 24 h, averages of 4 data points.

Values joined by “and” are separate entries in the source; they are usually repeats but may differ in a detail not shown here. Identical values can stand only once. Like-named read-outs stand apart in the source and are kept apart here.

Turning to `Nc1ncnc2c1ncn2[C@H]1C[C@H](O)[C@@H](COP(=O)([O-])OP(=O)([O-])OP(=O)([O-])O)O1.[Na+].[Na+].[Na+]`, under setting [1], the “Percentage of motility inhibition 0 h” value came to 21%. The “Percentage of motility inhibition 24 h” value under setting [2] is 0%.

With `CC(=O)O[C@@H]1CC[C@@]2(C)[C@@H](CC[C@]3(C)[C@@H]2[C@H](O)C=C2[C@@H]4[C@@H](C)[C@H](C)CC[C@]4(C)CC[C@]23C)[C@@]1(C)C(=O)O`, the “Percentage of motility inhibition 0 h” value under setting [1] was 24%. Under setting [2], the “Percentage of motility inhibition 24 h” value is recorded as 23%.

Regarding `O=C(O)[C@@H]1C[C@@H](O)CN1`, the “Percentage of motility inhibition 0 h” value under setting [1] is listed as 11%. In addition, the “Percentage of motility inhibition 24 h” value under setting [2] turned out to be 0%.

As for `CC1(C)CC[C@]2(C(=O)O)CC[C@]3(C)C(=CC[C@@H]4[C@@]5(C)CC[C@H](O[C@@H]6O[C@H](C(=O)O)[C@@H](O)[C@H](O[C@@H]7OC[C@@H](O)[C@H](O)[C@H]7O[C@@H]7O[C@H](CO)[C@@H](O)[C@H](O)[C@H]7O)[C@H]6O)C(C)(C)[C@@H]5CC[C@]43C)[C@@H]2C1`, the “Percentage of motility inhibition 0 h” value under setting [1] was 0%. Besides, the “Percentage of motility inhibition 24 h” value under setting [2] is given as 0%.

As to `O=c1c(O[C@@H]2O[C@H](CO)[C@@H](O)[C@H](O)[C@H]2O)c(-c2ccc(O)c(O)c2)oc2cc(O[C@@H]3O[C@H](CO[C@@H]4O[C@H](CO)[C@@H](O)[C@H](O)[C@H]4O)[C@@H](O)[C@H](O)[C@H]3O)cc(O)c12`, where the note is “110 µM”, the “Percentage of motility inhibition 0 h” value is 0% and the “Percentage of motility inhibition 24 h” value was 0%.

Take `CN[C@@H]1[C@H](O)[C@H](NC)[C@H]2O[C@@]3(O)C(=O)C[C@@H](C)O[C@H]3O[C@@H]2[C@H]1O.Cl.Cl.O.O.O.O.O`: the “Percentage of motility inhibition 0 h” value under setting [1] came out at 16%. Further, the “Percentage of motility inhibition 24 h” value under setting [2] worked out at 2%.

Consider `C[C@@H]1O[C@@H](O[C@@H]2[C@@H](O)[C@H](O[C@H]3CC[C@]4(C)[C@H]5CC=C6[C@@H]7CC(C)(C)CC[C@]7(C(=O)O[C@@H]7O[C@H](CO)[C@@H](O)[C@H](O)[C@H]7O)CC[C@@]6(C)[C@]5(C)CC[C@H]4C3(C)C)O[C@H](C(=O)O)[C@H]2O)[C@H](O)[C@H](O)[C@H]1O`, for which, under setting [1], the “Percentage of motility inhibition 0 h” value is 6%. In addition, the “Percentage of motility inhibition 24 h” value under setting [2] was 0%.

`Nc1ccc(C(=O)[O-])c(O)c1.O.O.[Na+]`: the “Percentage of motility inhibition 0 h” value under setting [1] is recorded as 24%. Also, the “Percentage of motility inhibition 24 h” value under setting [2] was 6%.

Consider 4'‐O‐Methylbavachalcone, for which, under setting [1], the “Percentage of motility inhibition 0 h” value turned out to be 19%. Also, the “Percentage of motility inhibition 24 h” value under setting [2] worked out at 3%.

As to `Nc1nc(=O)c2c([nH]1)NCC(CNc1ccc(C(=O)N[C@@H](CCC(=O)O)C(=O)O)cc1)N2C=O` (mixture of isomers) [Folinic acid], under setting [1], the “Percentage of motility inhibition 0 h” value was 11%. Under setting [2], the “Percentage of motility inhibition 24 h” value came to 20%.

On to `COc1ccc([C@@H]2CC(=O)c3c(O)cc(O)cc3O2)cc1O` (racemic) [(Rac)‐Hesperetin], for which the “Percentage of motility inhibition 0 h” value under setting [1] turned out to be 0%. Also, the “Percentage of motility inhibition 24 h” value under setting [2] is listed as 0%.

For `COc1cc(C2Oc3ccc(-c4cc(=O)c5c(O)cc(O)cc5o4)cc3OC2CO)ccc1O` (racemic) [(Rac)‐Hydnocarpin], under setting [1], the “Percentage of motility inhibition 0 h” value was found to be 7%. Moreover, the “Percentage of motility inhibition 24 h” value under setting [2] came to 0%.

Regarding `c1cncc([C@@H]2CCCCN2)c1` (racemic) [(±) Anabasine], the “Percentage of motility inhibition 0 h” value under setting [1] is on record as 3%. In addition, the “Percentage of motility inhibition 24 h” value under setting [2] worked out at 0%.

Turning to `CN1c2ccccc2C(=O)N2CCc3c([nH]c4ccccc34)[C@@H]21` (racemic) [(±)‐Evodiamine], the “Percentage of motility inhibition 0 h” value under setting [1] was determined as 0%. The “Percentage of motility inhibition 24 h” value under setting [2] was found to be 12%.

`Cl.c1cc2c(c3c1CC1c4cc5c(cc4CCN1C3)OCO5)OCO2` (racemic) [(±)‐Stylopine (hydrochloride)]: the “Percentage of motility inhibition 0 h” value under setting [1] came to 0%. Further, the “Percentage of motility inhibition 24 h” value under setting [2] worked out at 3%.

As to `c1cc2c(c3c1C[C@H]1c4cc5c(cc4CCN1C3)OCO5)OCO2` (racemic) [(±)‐Stylopine], under setting [1], the “Percentage of motility inhibition 0 h” value is 0%. For the same molecule, the “Percentage of motility inhibition 24 h” value under setting [2] worked out at 31%.

For the molecule `O[C@H]1CCN2Cc3ccccc3N=C12` (racemic) [(±)‐Vasicine], under setting [1], the “Percentage of motility inhibition 0 h” value is 3%. In addition, the “Percentage of motility inhibition 24 h” value under setting [2] is 31%.

Take `NC(N)=NCCCC(N)C(=O)O` (racemic) [DL-Arginine]: the “Percentage of motility inhibition 0 h” value under setting [1] was determined as 4%. The “Percentage of motility inhibition 24 h” value under setting [2] is listed as 0%.

As for `OC[C@@H](O)[C@@H](O)[C@H](O)[C@H](O)CO` (racemic) [DL-Mannitol], the “Percentage of motility inhibition 0 h” value under setting [1] was found to be 0%. In addition, the “Percentage of motility inhibition 24 h” value under setting [2] is recorded as 15%.

On to `CC1CCC(C(C)C)C(O)C1` (racemic) [DL-Menthol], for which the “Percentage of motility inhibition 0 h” value under setting [1] is 27%. Further, under setting [2], the “Percentage of motility inhibition 24 h” value came to 0%.

`O=C[C@H](O)[C@@H](O)[C@H](O)CO` (racemic) [DL-Xylose]: the “Percentage of motility inhibition 0 h” value under setting [1] was 0%. The “Percentage of motility inhibition 24 h” value under setting [2] is 5%.

With `Cc1c(C)c2c(c(C)c1O)CCC(C)(CCCC(C)CCCC(C)CCCC(C)C)O2` (racemic) [DL-alpha-Tocopherol], the “Percentage of motility inhibition 0 h” value under setting [1] is given as 5%. Further, the “Percentage of motility inhibition 24 h” value under setting [2] was determined as 9%.

Turning to `O=C(Nc1ccccc1F)N[C@H]1N=C(c2ccccc2)c2ccccc2NC1=O` (racemic) [RSV604 (racemate)], the “Percentage of motility inhibition 0 h” value under setting [1] turned out to be 23%. Further, the “Percentage of motility inhibition 24 h” value under setting [2] came out at 13%.

Take `CN1[C@H]2C[C@H](OC(=O)[C@H](CO)c3ccccc3)C[C@@H]1[C@@H](O)C2` (racemic) [Racanisodamine]: under setting [2], the “Percentage of motility inhibition 24 h” value was 0% and 6%.

On to `COC1=CC(=O)OC(/C=C/c2ccccc2)C1` (single isomer, unassigned; (+)) [(+)-Kavain], for which the “Percentage of motility inhibition 0 h” value under setting [1] is 5%. The “Percentage of motility inhibition 24 h” value under setting [2] was determined as 13%.

Turning to `CC1(C)C(=O)[C@]2(C)CCC1C2` (single isomer, unassigned; (-)) [(-)-Fenchone], the “Percentage of motility inhibition 0 h” value under setting [1] stood at 26%. In addition, the “Percentage of motility inhibition 24 h” value under setting [2] amounted to 22%.

For `CC1CCC(C(C)C)C(O)C1` (single isomer, unassigned; (-)) [(-)-Menthol], the “Percentage of motility inhibition 0 h” value under setting [1] was 7% and 6%.

As to `C[C@H]1O[C@@H](O[C@@H]2CC[C@@]3(C)[C@@H](CC[C@]4(C)[C@@H]3C=C[C@]35OC[C@@]6(CCC(C)(C)C[C@H]63)[C@@H](O)C[C@]54C)[C@@]2(C)CO)[C@H](O)[C@@H](O)[C@H]1O` (stereo in doubt) [Prosaikogenin G], the “Percentage of motility inhibition 0 h” value under setting [1] turned out to be 2%. Besides, under setting [2], the “Percentage of motility inhibition 24 h” value is given as 34%.

Regarding `CC=C1[C@H](O[C@@H]2O[C@H](CO)[C@@H](O)[C@H](O)[C@H]2O)OC=C(C(=O)OC)[C@H]1CC(=O)OC[C@H]1O[C@@H](OCCc2ccc(O)cc2)[C@H](O)[C@@H](O)[C@@H]1O` (stereo in doubt) [Specneuzhenide], the “Percentage of motility inhibition 0 h” value under setting [1] was 3%. The “Percentage of motility inhibition 24 h” value under setting [2] came to 31%.

Turning to `CC=C1[C@H](O[C@@H]2O[C@H](CO)[C@@H](O)[C@H](O)[C@H]2O)OC=C(C(=O)OC)[C@H]1CC(=O)OC[C@H]1O[C@@H](OCCc2ccc(O)cc2)[C@H](O)[C@@H](O)[C@@H]1O` (stereo in doubt) [Specnuezhenide], under setting [1], the “Percentage of motility inhibition 0 h” value came out at 1%. Also, the “Percentage of motility inhibition 24 h” value under setting [2] came out at 13%.

On to `Cc1ccn(C)n1` [1,3‐Dimethylpyrazole], for which the “Percentage of motility inhibition 0 h” value under setting [1] came to 6%. Besides, the “Percentage of motility inhibition 24 h” value under setting [2] is recorded as 3%.

For the molecule `CCCCCCCCCCCCCCCCCCCCCCO` [1-Docosanol], under setting [1], the “Percentage of motility inhibition 0 h” value is given as 7%. Besides, the “Percentage of motility inhibition 24 h” value under setting [2] was 8%.

With `c1cn[nH]c1` [1H‐pyrazole], under setting [1], the “Percentage of motility inhibition 0 h” value was 0%. Moreover, the “Percentage of motility inhibition 24 h” value under setting [2] stood at 21%.

Take `CC(C)C1=CC2C(CCC2(C)O)C(C)(O)CC1` (stereo not drawn) [1αH,5αH-Guaia-6-ene-4β,10β-diol]: under setting [1], the “Percentage of motility inhibition 0 h” value is on record as 0%. The “Percentage of motility inhibition 24 h” value under setting [2] is 27%.

Consider `O=C(/C=C/c1ccc(O)c(O)c1)OC1(C(=O)O)C[C@@H](O)C(O)[C@H](O)C1` (stereo partly drawn) [1‐Caffeoylquinic acid], for which the “Percentage of motility inhibition 0 h” value under setting [1] worked out at 24%. The “Percentage of motility inhibition 24 h” value under setting [2] worked out at 0%.

Regarding `Cl.OC[C@H]1NC[C@@H](O)[C@@H](O)[C@@H]1O` [1‐Deoxymannojirimycin (hydrochloride)], the “Percentage of motility inhibition 0 h” value under setting [1] turned out to be 32%. Moreover, under setting [2], the “Percentage of motility inhibition 24 h” value is 11%.

Consider `Cn1cnc2c(ncn2[C@@H]2O[C@H](CO)[C@@H](O)[C@H]2O)c1=N` [1‐Methyladenosine], for which the “Percentage of motility inhibition 0 h” value under setting [1] stood at 7%. For the same molecule, the “Percentage of motility inhibition 24 h” value under setting [2] is listed as 0%.

For `CCCCCc1cc(=O)c2ccccc2n1C` [1‐Methyl‐2‐pentyl‐4(1H)‐quinolinone], the “Percentage of motility inhibition 0 h” value under setting [1] stood at 44%. Under setting [2], the “Percentage of motility inhibition 24 h” value came to 30%.

Consider `O=C(O[C@H]1[C@H](Oc2c(-c3ccc(O)c(O)c3)oc3cc(O)cc(O)c3c2=O)O[C@H](CO)[C@H](O)[C@@H]1O)c1cc(O)c(O)c(O)c1` [2"‐O‐Galloylhyperin], for which the “Percentage of motility inhibition 0 h” value under setting [1] stood at 32%. Moreover, the “Percentage of motility inhibition 24 h” value under setting [2] was found to be 1%.

For the molecule `O=c1cc(-c2ccc(O)c(O)c2)oc2c(C3OC(CO)C(O)C(O)C3OC3OC(CO)C(O)C(O)C3O)c(O)cc(O)c12` (stereo not drawn) [2"‐O‐beta‐L‐galactopyranosylorientin], the “Percentage of motility inhibition 0 h” value under setting [1] came out at 7%. In addition, under setting [2], the “Percentage of motility inhibition 24 h” value is on record as 0%.

As to `COc1ccc(-c2oc3c(CC=C(C)C)c(O)cc(O)c3c(=O)c2O[C@@H]2O[C@@H](C)[C@H](O)[C@@H](O)[C@H]2O[C@@H]2O[C@@H](C)[C@H](O)[C@@H](O)[C@H]2O)cc1` [2''‐O‐Rhamnosylicariside II], the “Percentage of motility inhibition 0 h” value under setting [1] amounted to 0%. Moreover, the “Percentage of motility inhibition 24 h” value under setting [2] is reported as 13%.

For `CC(=O)c1ccccc1O` [2'‐Hydroxyacetophenone], the “Percentage of motility inhibition 0 h” value under setting [1] stood at 0%. Also, the “Percentage of motility inhibition 24 h” value under setting [2] was determined as 1%.

`c1ccc2c(Cc3[nH]c4ccccc4c3Cc3c[nH]c4ccccc34)c[nH]c2c1` [2,3‐Bis(3‐indolylmethyl)indole]: the “Percentage of motility inhibition 0 h” value under setting [1] is recorded as 21%. The “Percentage of motility inhibition 24 h” value under setting [2] is 9%.

These data come from PMC11855827, “High-Throughput Screening of Five Compound Libraries for Anthelmintic Activity and Toxicity Leads to the Discovery of Two Flavonoid Compounds” (International Journal of Molecular Sciences, 2025).
